Test results published in article PMC12686049 (2025).
Each block holds one compound with its values, some of them ahead of it.

Tests used:
[1] = tested on: A1-G (DNA, G4) CCGGGAGGAATCATGTAAGGGGTCCCGGGAACGGGCAAGGGGCTTTTCACC; assay: CD titration at 295 nm, Hill fit; details: 100 mM KCl; 10 mM sodium cacodylate, pH 7.0, 25 °C; 10 µM DNA; apparent, half-maximal ellipticity change; Hill coefficient 2.1 ± 0.9
[2] = tested on: A2-G (DNA, G4) GGGTGGGGGTGATAAACGGGGCATCAGGGACACATTGCTGGGTCGGGTCGT; assay: CD titration at 295 nm, Hill fit; details: 100 mM KCl; 10 mM sodium cacodylate, pH 7.0, 25 °C; 10 µM DNA; apparent, half-maximal ellipticity change; Hill coefficient 2.8 ± 1.5
[3] = tested on: rodA (DNA, G4) GGGGTAGGGAACAGGGTCCCGGG; assay: thioflavin T fluorescence; details: 100 mM KCl; 10 mM sodium cacodylate, pH 7.4; 4 µM DNA, 1 µM dye; background without DNA 1154
[4] = tested on: arp2 (DNA, G4) GGGGAGGGGACCCTTGCATGGAGGGGGGG; assay: thioflavin T fluorescence; details: 100 mM KCl; 10 mM sodium cacodylate, pH 7.4; 4 µM DNA, 1 µM dye; background without DNA 1154
[5] = tested on: ags1 (DNA, G4) GGGCTTGAGGGGAACTGGGAGGAGCGGG; assay: thioflavin T fluorescence; details: 100 mM KCl; 10 mM sodium cacodylate, pH 7.4; 4 µM DNA, 1 µM dye; background without DNA 1154
[6] = tested on: cyp51A (DNA, G4) GGGTGGGGGTGATAAACGGGGCATCAGGG; assay: thioflavin T fluorescence; details: 100 mM KCl; 10 mM sodium cacodylate, pH 7.4; 4 µM DNA, 1 µM dye; background without DNA 1154
[7] = tested on: cyp51B (DNA, G4) GGGGTAGGGGGGCCCAGGG; assay: thioflavin T fluorescence; details: 100 mM KCl; 10 mM sodium cacodylate, pH 7.4; 4 µM DNA, 1 µM dye; background without DNA 1154
[8] = tested on: hmg1 (DNA, G4) GGGCGGCAGGGACAGGGGCAACTTCGGG; assay: thioflavin T fluorescence; details: 100 mM KCl; 10 mM sodium cacodylate, pH 7.4; 4 µM DNA, 1 µM dye; background without DNA 1154
[9] = tested on: atrR (DNA, G4) GGGGGAGGGTGCGGGATGCTCTTCGGG; assay: thioflavin T fluorescence; details: 100 mM KCl; 10 mM sodium cacodylate, pH 7.4; 4 µM DNA, 1 µM dye; background without DNA 1154
[10] = tested on: erg1 (DNA, G4) GGGCGACGGGGAAGAGGTAGGGAGGG; assay: thioflavin T fluorescence; details: 100 mM KCl; 10 mM sodium cacodylate, pH 7.4; 4 µM DNA, 1 µM dye; background without DNA 1154
[11] = tested on: erg5 (DNA, G4) GGGATTAGGGTATGCCTCAGGGTCATGGG; assay: thioflavin T fluorescence; details: 100 mM KCl; 10 mM sodium cacodylate, pH 7.4; 4 µM DNA, 1 µM dye; background without DNA 1154
[12] = tested on: dppV (DNA, G4) GGGACGGCGTTGGGGGGGGGAAGGG; assay: thioflavin T fluorescence; details: 100 mM KCl; 10 mM sodium cacodylate, pH 7.4; 4 µM DNA, 1 µM dye; background without DNA 1154
[13] = tested on: zrfC (DNA, G4) GGGTTGGGCTGGTCGACATGTGGGCCCGGG; assay: thioflavin T fluorescence; details: 100 mM KCl; 10 mM sodium cacodylate, pH 7.4; 4 µM DNA, 1 µM dye; background without DNA 1154
[14] = tested on: zafA (DNA, G4) GGGCAGGGCAGAGCAGGGCAGGGG; assay: thioflavin T fluorescence; details: 100 mM KCl; 10 mM sodium cacodylate, pH 7.4; 4 µM DNA, 1 µM dye; background without DNA 1154
[15] = tested on: lysF (DNA, G4) GGGACGCGGGGGGCGGCATCGGGAGCGGG; assay: thioflavin T fluorescence; details: 100 mM KCl; 10 mM sodium cacodylate, pH 7.4; 4 µM DNA, 1 µM dye; background without DNA 1154
[16] = tested on: hscA (DNA, G4) GGGGCTGAATTGGGGGGGAAAACGAGACGGG; assay: thioflavin T fluorescence; details: 100 mM KCl; 10 mM sodium cacodylate, pH 7.4; 4 µM DNA, 1 µM dye; background without DNA 1154
[17] = tested on: aspf2 (DNA, G4) GGGGACGGGGGAGGTAGGGAGGG; assay: thioflavin T fluorescence; details: 100 mM KCl; 10 mM sodium cacodylate, pH 7.4; 4 µM DNA, 1 µM dye; background without DNA 1154
[18] = tested on: aspf28 (DNA, G4) GGGTTGCGAGGGAAGGAGGGGCGGG; assay: thioflavin T fluorescence; details: 100 mM KCl; 10 mM sodium cacodylate, pH 7.4; 4 µM DNA, 1 µM dye; background without DNA 1154
[19] = tested on: gstA (DNA, G4) GGGCTGGGTGGCGGCCGCTGGTTGGGCGGG; assay: thioflavin T fluorescence; details: 100 mM KCl; 10 mM sodium cacodylate, pH 7.4; 4 µM DNA, 1 µM dye; background without DNA 1154
[20] = tested on: yap1 (DNA, G4) GGGATGGGCTTCCCAAGTCGGGGAGAGGG; assay: thioflavin T fluorescence; details: 100 mM KCl; 10 mM sodium cacodylate, pH 7.4; 4 µM DNA, 1 µM dye; background without DNA 1154
[21] = tested on: skn7 (DNA, single strand) GGGGGGGGGGTGGG; assay: thioflavin T fluorescence; details: 100 mM KCl; 10 mM sodium cacodylate, pH 7.4; 4 µM DNA, 1 µM dye; background without DNA 1154
[22] = tested on: pes1 (DNA, G4) GGGAGCAAGGGGAAATCGCTGAGGGTGGG; assay: thioflavin T fluorescence; details: 100 mM KCl; 10 mM sodium cacodylate, pH 7.4; 4 µM DNA, 1 µM dye; background without DNA 1154
[23] = tested on: atrF (DNA, G4) GGGTATTTGTTTGGGGGGATGGG; assay: thioflavin T fluorescence; details: 100 mM KCl; 10 mM sodium cacodylate, pH 7.4; 4 µM DNA, 1 µM dye; background without DNA 1154
[24] = tested on: abcB (DNA, G4) GGGGGTGGGCGTTGGGGCGGG; assay: thioflavin T fluorescence; details: 100 mM KCl; 10 mM sodium cacodylate, pH 7.4; 4 µM DNA, 1 µM dye; background without DNA 1154
[25] = tested on: ste7 (DNA, G4) GGGAGGGACACAAAGAGGGGATAAGGAGGG; assay: thioflavin T fluorescence; details: 100 mM KCl; 10 mM sodium cacodylate, pH 7.4; 4 µM DNA, 1 µM dye; background without DNA 1154
[26] = tested on: bck1 (DNA, G4) GGGCCTGGAGGGGGGCCCGGGG; assay: thioflavin T fluorescence; details: 100 mM KCl; 10 mM sodium cacodylate, pH 7.4; 4 µM DNA, 1 µM dye; background without DNA 1154
[27] = tested on: pkaC1 (DNA, G4) GGGTTGTGGTGGGTGGAGGGATGGGG; assay: thioflavin T fluorescence; details: 100 mM KCl; 10 mM sodium cacodylate, pH 7.4; 4 µM DNA, 1 µM dye; background without DNA 1154
[28] = tested on: laeA (DNA, G4) GGGATGTGGGACAGGGATTTGGG; assay: thioflavin T fluorescence; details: 100 mM KCl; 10 mM sodium cacodylate, pH 7.4; 4 µM DNA, 1 µM dye; background without DNA 1154
[29] = tested on: gliN (DNA, G4) GGGGGGCGCTTGGCTGGGAAGGCGGTTGGG; assay: thioflavin T fluorescence; details: 100 mM KCl; 10 mM sodium cacodylate, pH 7.4; 4 µM DNA, 1 µM dye; background without DNA 1154
[30] = tested on: ftmC (DNA, G4) GGGTCTGGAGCGCGGGGTTCGGGGATCGGG; assay: thioflavin T fluorescence; details: 100 mM KCl; 10 mM sodium cacodylate, pH 7.4; 4 µM DNA, 1 µM dye; background without DNA 1154
[31] = tested on: fks1 (DNA, G4) GGAAGGGGCTCGGGCATGGG; assay: thioflavin T fluorescence; details: 100 mM KCl; 10 mM sodium cacodylate, pH 7.4; 4 µM DNA, 1 µM dye; background without DNA 1154
[32] = tested on: mp1 (DNA, single strand) GGCTCCGGCTCCGGCTCCGG; assay: thioflavin T fluorescence; details: 100 mM KCl; 10 mM sodium cacodylate, pH 7.4; 4 µM DNA, 1 µM dye; background without DNA 1154
[33] = tested on: chsG (DNA, G4) GGAGAGCGGGAGGTGGTGAGGG; assay: thioflavin T fluorescence; details: 100 mM KCl; 10 mM sodium cacodylate, pH 7.4; 4 µM DNA, 1 µM dye; background without DNA 1154
[34] = tested on: ftmE (DNA, G4) GGGAGTGGGGATGGCGACGGGGAGCAGGG; assay: thioflavin T fluorescence; details: 100 mM KCl; 10 mM sodium cacodylate, pH 7.4; 4 µM DNA, 1 µM dye; background without DNA 1154
[35] = tested on: B DNA (DNA, single strand) GGCGCTATTCTCTGGTGCTGCT; assay: thioflavin T fluorescence; details: 100 mM KCl; 10 mM sodium cacodylate, pH 7.4; 4 µM DNA, 1 µM dye; background without DNA 1154
[36] = tested on: Telomere (DNA, G4) TTAGGGTTAGGGTTAGGGTTAGGGTT; assay: thioflavin T fluorescence; details: 100 mM KCl; 10 mM sodium cacodylate, pH 7.4; 4 µM DNA, 1 µM dye; background without DNA 1154

K [1]: 32.7 ± 3.3 µM | K [2]: 32.5 ± 1.8 µM
Structure (SMILES): C[n+]1cc(NC(=O)c2ccc3ccc4ccc(C(=O)Nc5cc6ccccc6[n+](C)c5)nc4c3n2)cc2ccccc21

Fluorescence [3]: 50,100 ± 17 a.u. | Fluorescence [4]: 82,140 ± 54 a.u. | Fluorescence [5]: 67,230 ± 34 a.u. | Fluorescence [6]: 62,145 ± 13 a.u. | Fluorescence [7]: 34,409 ± 10 a.u. | Fluorescence [8]: 148,303 ± 33 a.u. | Fluorescence [9]: 37,691 ± 7 a.u. | Fluorescence [10]: 71,126 ± 17 a.u. | Fluorescence [11]: 149,474 ± 14 a.u. | Fluorescence [12]: 47,933 ± 12 a.u. | Fluorescence [13]: 81,452 ± 19 a.u. | Fluorescence [14]: 26,023 ± 6 a.u. | Fluorescence [15]: 86,442 ± 9 a.u. | Fluorescence [16]: 56,161 ± 21 a.u. | Fluorescence [17]: 87,449 ± 40 a.u. | Fluorescence [18]: 71,548 ± 13 a.u. | Fluorescence [19]: 56,709 ± 4 a.u. | Fluorescence [20]: 69,030 ± 18 a.u. | Fluorescence [21]: 7173 ± 6 a.u. | Fluorescence [22]: 129,161 ± 40 a.u. | Fluorescence [23]: 64,599 ± 9 a.u. | Fluorescence [24]: 28,763 ± 5 a.u. | Fluorescence [25]: 126,709 ± 54 a.u. | Fluorescence [26]: 73,174 ± 7 a.u. | Fluorescence [27]: 62,347 ± 4 a.u. | Fluorescence [28]: 50,899 ± 9 a.u. | Fluorescence [29]: 134,267 ± 16 a.u. | Fluorescence [30]: 66,613 ± 9 a.u. | Fluorescence [31]: 72,302 ± 9 a.u. | Fluorescence [32]: 9852 ± 22 a.u. | Fluorescence [33]: 38,112 ± 15 a.u. | Fluorescence [34]: 105,384 ± 10 a.u. | Fluorescence [35]: 8808 ± 6 a.u. | Fluorescence [36]: 100,859 ± 19 a.u.
Structure (SMILES): Cc1ccc2c(c1)sc(-c1ccc(N(C)C)cc1)[n+]2C
